Target: T1, Adrenergic β2 (Homo sapiens, UniProt P07550)
T1 construct: Adherent H292 cells were removed from tissue culture flasks; endogenous in cells; host or cells: H292 cells
Test: Adrenergic β2 mediated cAMP production in H292 cells (AlphaScreen cAMP detection)
Type: cell-based
Parameters: key to β2 Int Act: fraction of formoterol maximum activity (formoterol = 1)
Conditions: Intrinsic Activity as a fraction relative to the maximum activity determined for formoterol
Experimental: Adrenergic β2 Mediated cAMP Production
H292 cells were grown in 225 cm2 flasks incubator at 37° C., 5% CO2 in RPMI medium containing, 10% (v/v) FBS (foetal bovine serum) and 2 mM L-glutamine.
Adherent H292 cells were removed from tissue culture flasks by treatment with Accutase™ cell detachment solution for 15 minutes. Flasks were incubated for 15 minutes in a humidified incubator at 37° C., 5% CO2. Detached cells were re-suspended in RPMI media (containing 10% (v/v) FBS and 2 mM L-glutamine) at 1×10^6 cells per mL. 10000 cells in 100 μL were added to each well of a tissue-culture-treated 96-well plate and the cells incubated overnight in a humidified incubator at 37° C., 5% CO2. The culture media was removed and cells were washed twice with 100 μL assay buffer and replaced with 50 μL assay buffer (HBSS solution containing 10 mM HEPES pH7.4 and 5 mM glucose). Cells were rested at room temperature for 20 minutes after which time 25 μL of rolipram (1.2 mM made up in assay buffer containing 2.4% (v/v) dimethylsulphoxide) was added. Cells were incubated with rolipram for 10 minutes after which time test compounds were added and the cells were incubated for 60 minutes at room temperature. The final rolipram concentration in the assay was 300 μM and final vehicle concentration was 1.6% (v/v) dimethylsulphoxide. The reaction was stopped by removing supernatants, washing once with 100 μL assay buffer and replacing with 50 μL lysis buffer. The cell monolayer was frozen at −80° C. for 30 minutes (or overnight).
AlphaScreen™ cAMP Detection
The concentration of cAMP (cyclic adenosine monophosphate) in the cell lysate was determined using AlphaScreen™ methodology. The frozen cell plate was thawed for 20 minutes on a plate shaker then 10 μL of the cell lysate was transferred to a 96-well white plate. 40 μL of mixed AlphaScreen™ detection beads pre-incubated with biotinylated cAMP, was added to each well and the plate incubated at room temperature for 10 hours in the dark. The AlphaScreen™ signal was measured using an EnVision spectrophotometer (Perkin-Elmer Inc.) with the recommended manufacturer's settings. cAMP concentrations were determined by reference to a calibration curve determined in the same experiment using standard cAMP concentrations. Concentration response curves for agonists were constructed and data was fitted to a four parameter logistic equation to determine both the pEC50 and Intrinsic Activity. Intrinsic Activity was expressed as a fraction relative to the maximum activity determined for formoterol in each experiment.

T1 sequence (P07550 whole entry): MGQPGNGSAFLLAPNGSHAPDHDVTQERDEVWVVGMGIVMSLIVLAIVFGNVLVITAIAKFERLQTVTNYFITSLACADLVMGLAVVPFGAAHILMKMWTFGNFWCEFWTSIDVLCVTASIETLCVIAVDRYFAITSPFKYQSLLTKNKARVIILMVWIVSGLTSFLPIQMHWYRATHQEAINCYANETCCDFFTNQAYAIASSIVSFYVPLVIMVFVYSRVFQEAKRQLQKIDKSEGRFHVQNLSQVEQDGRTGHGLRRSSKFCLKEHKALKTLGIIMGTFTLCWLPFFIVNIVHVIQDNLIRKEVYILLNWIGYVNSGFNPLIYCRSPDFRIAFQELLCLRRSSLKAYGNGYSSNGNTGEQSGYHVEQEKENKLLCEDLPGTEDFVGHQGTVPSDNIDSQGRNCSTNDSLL

O=C1COc2c(CCNCCN(C(=O)CCNCCc3ccc(Cl)c(Cl)c3)C3CCCCCC3)ccc(O)c2N1 [Example 26, N-Cycloheptyl-3-(3,4-dichlorophenethylamino)-N-(2-(2-(5-hydroxy-3-oxo-3,4-dihydro-2H-benzo[b][1,4]oxazin-8-yl)ethylamino)ethyl)propanamide bis(trifluoroacetate)]
β2 Int Act: 0.74

O=C1COc2c(CCNCCN(C(=O)CCNCCc3cccc(Cl)c3)C3CCCCC3)ccc(O)c2N1 [Example 27, 3-(3-Chlorophenethylamino)-N-cyclohexyl-N-(2-(2-(5-hydroxy-3-oxo-3,4-dihydro-2H-benzo[b][1,4]oxazin-8-yl)ethylamino)ethyl)propanamide bis(trifluoroacetate)]
β2 Int Act: 0.89

O=C1COc2c(CCNCCN(C(=O)CCNCCc3ccccc3Cl)C3CCCCC3)ccc(O)c2N1 [Example 28, 3-(2-Chlorophenethylamino)-N-cyclohexyl-N-(2-(2-(5-hydroxy-3-oxo-3,4-dihydro-2H-benzo[b][1,4]oxazin-8-yl)ethylamino)ethyl)propanamide bis(trifluoroacetate)]
β2 Int Act: 0.86

O=C1COc2c(CCNCCN(C(=O)CCNCCc3cccc(Cl)c3Cl)C3CCCCC3)ccc(O)c2N1 [Example 29, N-Cyclohexyl-3-(2,3-dichlorophenethylamino)-N-(2-(2-(5-hydroxy-3-oxo-3,4-dihydro-2H-benzo[b][1,4]oxazin-8-yl)ethylamino)ethyl)propanamide bis(trifluoroacetate)]
β2 Int Act: 0.91

O=C1COc2c(CCNCCN(C(=O)CCNCCc3ccc(Cl)c(Cl)c3)C3CCCCC3)ccc(O)c2N1 [Example 30, N-Cyclohexyl-3-(3,4-dichlorophenethylamino)-N-(2-(2-(5-hydroxy-3-oxo-3,4-dihydro-2H-benzo[b][1,4]oxazin-8-yl)ethylamino)ethyl)propanamide bis(trifluoroacetate)]
β2 Int Act: 0.92

O=C1COc2c(CCNCCN(C(=O)CCNCCc3ccc(Cl)cc3Cl)C3CCCCC3)ccc(O)c2N1 [Example 31, N-Cyclohexyl-3-(2,4-dichlorophenethylamino)-N-(2-(2-(5-hydroxy-3-oxo-3,4-dihydro-2H-benzo[b][1,4]oxazin-8-yl)ethylamino)ethyl)propanamide bis(trifluoroacetate)]
β2 Int Act: 0.94

Cc1ccc(F)c(CCNCCC(=O)N(CCNCCc2ccc(O)c3c2OCC(=O)N3)C2CCCCC2)c1 [Example 33, N-Cyclohexyl-3-(2-fluoro-5-methylphenethylamino)-N-(2-(2-(5-hydroxy-3-oxo-3,4-dihydro-2H-benzo[b][1,4]oxazin-8-yl)ethylamino)ethyl)propanamide bis(trifluoroacetate)]
β2 Int Act: 0.9

O=C1COc2c(CCNCCN(C(=O)CCNCCc3cc(Cl)ccc3F)C3CCCCC3)ccc(O)c2N1 [Example 34, 3-(5-Chloro-2-fluorophenethylamino)-N-cyclohexyl-N-(2-(2-(5-hydroxy-3-oxo-3,4-dihydro-2H-benzo[b][1,4]oxazin-8-yl)ethylamino)ethyl)propanamide bis(trifluoroacetate)]
β2 Int Act: 0.9

O=C1COc2c(CCNCCN(C(=O)CCNCCc3cc(F)cc(F)c3)C3CCCCC3)ccc(O)c2N1 [Example 35, N-Cyclohexyl-3-(3,5-difluorophenethylamino)-N-(2-(2-(5-hydroxy-3-oxo-3,4-dihydro-2H-benzo[b][1,4]oxazin-8-yl)ethylamino)ethyl)propanamide bis(trifluoroacetate)]
β2 Int Act: 0.87

O=C1COc2c(CCNCCN(C(=O)CCNCCc3cccc(F)c3F)C3CCCCC3)ccc(O)c2N1 [Example 36, N-Cyclohexyl-3-(2,3-difluorophenethylamino)-N-(2-(2-(5-hydroxy-3-oxo-3,4-dihydro-2H-benzo[b][1,4]oxazin-8-yl)ethylamino)ethyl)propanamide bis(trifluoroacetate)]
β2 Int Act: 0.91

O=C1COc2c(CCNCCN(C(=O)CCNCCc3ccc(F)c(Cl)c3)C3CCCCC3)ccc(O)c2N1 [Example 37, 3-(3-Chloro-4-fluorophenethylamino)-N-cyclohexyl-N-(2-(2-(5-hydroxy-3-oxo-3,4-dihydro-2H-benzo[b][1,4]oxazin-8-yl)ethylamino)ethyl)propanamide bis(trifluoroacetate)]
β2 Int Act: 0.89

O=C1COc2c(CCNCCN(C(=O)CCNCCc3cc(F)ccc3F)C3CCCCC3)ccc(O)c2N1 [Example 38, N-Cyclohexyl-3-(2,5-difluorophenethylamino)-N-(2-(2-(5-hydroxy-3-oxo-3,4-dihydro-2H-benzo[b][1,4]oxazin-8-yl)ethylamino)ethyl)propanamide bis(trifluoroacetate)]
β2 Int Act: 0.98

O=C1COc2c(CCNCCN(C(=O)CCNCCc3cccc(Cl)c3F)C3CCCCC3)ccc(O)c2N1 [Example 39, 3-(3-Chloro-2-fluorophenethylamino)-N-cyclohexyl-N-(2-(2-(5-hydroxy-3-oxo-3,4-dihydro-2H-benzo[b][1,4]oxazin-8-yl)ethylamino)ethyl)propanamide bis(trifluoroacetate)]
β2 Int Act: 0.98

Cc1cc(CCNCCC(=O)N(CCNCCc2ccc(O)c3c2OCC(=O)N3)C2CCCCC2)ccc1F [Example 40, N-Cyclohexyl-3-(4-fluoro-3-methylphenethylamino)-N-(2-(2-(5-hydroxy-3-oxo-3,4-dihydro-2H-benzo[b][1,4]oxazin-8-yl)ethylamino)ethyl)propanamide bis(trifluoroacetate)]
β2 Int Act: 0.96

O=C1COc2c(CCNCCN(C(=O)CCNCCc3cc(F)cc(Cl)c3)C3CCCCC3)ccc(O)c2N1 [Example 41, 3-(3-Chloro-5-fluorophenethylamino)-N-cyclohexyl-N-(2-(2-(5-hydroxy-3-oxo-3,4-dihydro-2H-benzo[b][1,4]oxazin-8-yl)ethylamino)ethyl)propanamide bis(trifluoroacetate)]
β2 Int Act: 0.95

O=C1COc2c(CCNCCN(C(=O)CCNCCc3ccc(F)c(F)c3)C3CCCCC3)ccc(O)c2N1 [Example 42, N-Cyclohexyl-3-(3,4-difluorophenethylamino)-N-(2-(2-(5-hydroxy-3-oxo-3,4-dihydro-2H-benzo[b][1,4]oxazin-8-yl)ethylamino)ethyl)propanamide bis(trifluoroacetate)]
β2 Int Act: 0.9

O=C1COc2c(CCNCCN(C(=O)CCNCCc3ccc(C(=O)O)cc3)C3CCCCC3)ccc(O)c2N1 [Example 43, 4-(2-(3-(Cyclohexyl(2-(2-(5-hydroxy-3-oxo-3,4-dihydro-2H-benzo[b][1,4]oxazin-8-yl)ethylamino)ethyl)amino)-3-oxopropylamino)ethyl)benzoic acid bis(trifluoroacetate)]
β2 Int Act: 0.97

CCCC[C@@H](C)N(CCNCCc1ccc(O)c2c1OCC(=O)N2)C(=O)CCNCCc1cccc(Cl)c1 [Example 44, (R)-3-(3-Chlorophenethylamino)-N-(hexan-2-yl)-N-(2-(2-(5-hydroxy-3-oxo-3,4-dihydro-2H-benzo[b][1,4]oxazin-8-yl)ethylamino)ethyl)propanamide bis(trifluoroacetate)]
β2 Int Act: 0.89

CCCC[C@@H](C)N(CCNCCc1ccc(O)c2c1OCC(=O)N2)C(=O)CCNCCc1ccc(Cl)cc1 [Example 45, (R)-3-(4-Chlorophenethylamino)-N-(hexan-2-yl)-N-(2-(2-(5-hydroxy-3-oxo-3,4-dihydro-2H-benzo[b][1,4]oxazin-8-yl)ethylamino)ethyl)propanamide bis(trifluoroacetate)]
β2 Int Act: 0.89

CCCC[C@@H](C)N(CCNCCc1ccc(O)c2c1OCC(=O)N2)C(=O)CCNCCc1ccccc1Cl [Example 46, (R)-3-(2-Chlorophenethylamino)-N-(hexan-2-yl)-N-(2-(2-(5-hydroxy-3-oxo-3,4-dihydro-2H-benzo[b][1,4]oxazin-8-yl)ethylamino)ethyl)propanamide bis(trifluoroacetate)]
β2 Int Act: 0.89

CCCC[C@@H](C)N(CCNCCc1ccc(O)c2c1OCC(=O)N2)C(=O)CCNCCc1ccc(F)c(C)c1 [Example 47, (R)-3-(4-Fluoro-3-methylphenethylamino)-N-(hexan-2-yl)-N-(2-(2-(5-hydroxy-3-oxo-3,4-dihydro-2H-benzo[b][1,4]oxazin-8-yl)ethylamino)ethyl)propanamide bis(trifluoroacetate)]
β2 Int Act: 0.89

CCCC[C@@H](C)N(CCNCCc1ccc(O)c2c1OCC(=O)N2)C(=O)CCNCCc1ccc(F)c(Cl)c1 [Example 48, (R)-3-(3-Chloro-4-fluorophenethylamino)-N-(hexan-2-yl)-N-(2-(2-(5-hydroxy-3-oxo-3,4-dihydro-2H-benzo[b][1,4]oxazin-8-yl)ethylamino)ethyl)propanamide bis(trifluoroacetate)]
β2 Int Act: 0.91

— patent US20120142646A1, “Novel Compounds 621” (priority 2006, published 2012)
